Experimental data taken from ChEMBL document CHEMBL4732090, “Preparation of new 1,3-dibenzyl tetrahydropyridinylidene ammonium salts and their antimicrobial and anticellular activities” (Eur J Med Chem, 2021).

Legend:
Plasmodium falciparum [1] = test: Antiplasmodial activity against chloroquine and pyrimethamine resistant Plasmodium falciparum K1 strain; type: functional, organism-based
Candida albicans = test: Antifungal activity against Candida albicans ATCC 90028 assessed as diameter of inhibition zone at 10 mg/ml by disk diffusion assay; type: functional; conditions: read-out: DIZ
[2] = Selectivity index, ratio of IC50 for rat L6 cells to IC50 for Trypanosoma brucei rhodesiense STIB900; type: toxicity; conditions: read-out: Ratio IC50
Escherichia coli = test: Antibacterial activity against Escherichia coli ATCC 25922 assessed as diameter of inhibition zone at 10 mg/ml by disk diffusion assay; type: functional; conditions: read-out: DIZ
Staphylococcus aureus = test: Antibacterial activity against Staphylococcus aureus ATCC 29213 assessed as diameter of inhibition zone at 10 mg/ml by disk diffusion assay; type: functional; conditions: read-out: DIZ
L6 = test: Cytotoxicity against rat L6 cells after 70 hrs by Alamar blue assay; type: cell-based; conditions: L6, 70 h, read-out: IC50
[3] = Selectivity index, ratio of IC50 for rat L6 cells to IC50 for Plasmodium falciparum NF54; type: toxicity; conditions: read-out: Ratio IC50
[4] = tested on: Trypanosoma brucei rhodesiense; test: Trypanocidal activity against Trypanosoma brucei rhodesiense STIB900 incubated for 70 hrs by Alamar blue assay; type: functional, organism-based; conditions: STIB900, 70 h
[5] = Selectivity index, ratio of IC50 for rat L6 cells to IC50 for chloroquine and pyrimethamine resistant Plasmodium falciparum K1; type: toxicity; conditions: read-out: Ratio IC50
Pseudomonas aeruginosa = test: Antibacterial activity against Pseudomonas aeruginosa ATCC 27853 assessed as diameter of inhibition zone at 10 mg/ml by disk diffusion assay; type: functional; conditions: read-out: DIZ
Plasmodium falciparum [6] = test: Antiplasmodial activity against Plasmodium falciparum NF54 erythrocytic stages assessed as reduction in [3H]hypoxanthine incorporation measured after 48 hrs by liquid scintillation counting method; type: functional, organism-based
[7] = tested on: Staphylococcus epidermidis; test: Antibacterial activity against Staphylococcus epidermis ATCC 12228 assessed as diameter of inhibition zone at 10 mg/ml by disk diffusion assay; type: functional; conditions: read-out: DIZ
HCT-116 = test: Cytotoxicity against human HCT-116 cells assessed as inhibition of cell growth at 50 uM after 72 hrs by XTT assay relative to control; type: functional
U-251 = test: Cytotoxicity against human U-251 cells assessed as inhibition of cell growth at 50 uM after 72 hrs by XTT assay relative to control; type: functional

Row | Structure (SMILES) | IC50 (Plasmodium falciparum [6]) | IC50 (Plasmodium falciparum [1]) | zone of inhibition at 10000 µg/mL (Candida albicans) | selectivity ratio [2] | zone of inhibition at 10000 µg/mL (Escherichia coli) | zone of inhibition at 10000 µg/mL (Staphylococcus aureus) | IC50 (L6) | selectivity ratio [3] | IC50 [4] | selectivity ratio [5] | zone of inhibition at 10000 µg/mL (Pseudomonas aeruginosa) | zone of inhibition at 10000 µg/mL [7] | inhibition at 50 µM (HCT-116) | inhibition at 50 µM (U-251)
1 | CC1(C)C(Cc2ccc(C#N)cc2)C(=[N+]2CCCC2)C=CN1Cc1ccccc1 (centres undefined) | 17 nM | 120 nM | 0 mm | > 19.6 | 8 mm | 14 mm | > 215 µM | > 12700 | 11000 nM | > 1790 | 5 mm | 12 mm |  | 
2 | CC1(C)C(Cc2ccc([N+](=O)[O-])cc2)C(=[N+]2CCCC2)C=CN1Cc1ccccc1 (racemic) | 43 nM |  | 0 mm | 37.9 | 11 mm | 15 mm | 206 µM | 4800 | 5450 nM |  | 0 mm | 18 mm |  | 
3 | CC1(C)C(Cc2ccccc2)C(=[N+]2CCCC2)C=CN1Cc1ccccc1 (racemic) | 32 nM | 55 nM | 0 mm | 376 | 12 mm | 21 mm | 48.8 µM | 1530 | 130 nM | 888 | 0 mm | 25 mm |  | 
4 | CC1(C)C(Cc2ccc(Br)cc2)C(=[N+]2CCCC2)C=CN1Cc1ccccc1 (racemic) | 7.7 nM |  | 13 mm | 192 | 11 mm | 22 mm | 34.5 µM | 4480 | 180 nM |  | 0 mm | 25 mm |  | 
5 | CC1(C)C(Cc2ccccc2)C(=[N+]2CCCCC2)C=CN1Cc1ccccc1 (racemic) | 15 nM | 24 nM | 0 mm | 558 | 10 mm | 22 mm | 24.6 µM | 1640 | 44 nM | 1024 | 0 mm | 28 mm |  | 
6 | CC1(C)C(Cc2ccccc2C(F)(F)F)C(=[N+]2CCCC2)C=CN1Cc1ccccc1 (racemic) | 85 nM |  | 10 mm | 776 | 13 mm | 23 mm | 77.5 µM | 912 | 100 nM |  | 0 mm | 22 mm |  | 
7 | CC1(C)C(Cc2c(Cl)cccc2Cl)C(=[N+]2CCCC2)C=CN1Cc1ccc(Cl)cc1 (racemic) | 3.6 nM | 6 nM | 20 mm | 87.1 | 15 mm | 21 mm | 4.53 µM | 1260 | 52 nM | 755 | 12 mm | 33 mm | 100% | 100%
8 | CC1(C)C(Cc2ccc(C(F)(F)F)cc2)C(=[N+]2CCCC2)C=CN1Cc1ccccc1 (racemic) | 26 nM |  | 15 mm | 268 | 11 mm | 22 mm | 85.9 µM | 3300 | 320 nM |  | 0 mm | 24 mm |  | 

Further lines, with some results ahead:

Row | IC50 (Plasmodium falciparum [6]) | Structure (SMILES) | IC50 (Plasmodium falciparum [1]) | zone of inhibition at 10000 µg/mL (Candida albicans) | selectivity ratio [2] | zone of inhibition at 10000 µg/mL (Escherichia coli) | zone of inhibition at 10000 µg/mL (Staphylococcus aureus) | IC50 (L6) | selectivity ratio [3] | IC50 [4] | selectivity ratio [5] | zone of inhibition at 10000 µg/mL (Pseudomonas aeruginosa) | zone of inhibition at 10000 µg/mL [7] | inhibition at 50 µM (HCT-116) | inhibition at 50 µM (U-251)
9 | 39 nM | CC(C)c1ccc(CC2C(=[N+]3CCCC3)C=CN(Cc3ccccc3)C2(C)C)cc1 (racemic) |  | 21 mm | 59.8 | 10 mm | 25 mm | 2.51 µM | 64.4 | 42 nM |  | 6 mm | 29 mm | 100% | 100%
10 | 18 nM | CC1(C)C(Cc2ccc(Cl)cc2Cl)C(=[N+]2CCCC2)C=CN1Cc1ccccc1 (racemic) |  | 15 mm | 237 | 12 mm | 22 mm | 26.1 µM | 1450 | 110 nM |  | 0 mm | 26 mm |  | 
11 | 30 nM | CC(C)(C)c1ccc(CC2C(=[N+]3CCCC3)C=CN(Cc3ccccc3)C2(C)C)cc1 (racemic) |  | 22 mm | 47 | 15 mm | 22 mm | 0.94 µM | 31.3 | 20 nM |  | 0 mm | 24 mm | 100% | 100%
12 | 30 nM | CC1(C)C(Cc2ccccc2)C(=[N+]2CCCC2)C=CN1Cc1ccc(Cl)cc1 (racemic) |  | 20 mm | 316 | 13 mm | 22 mm | 37.9 µM | 1260 | 120 nM |  | 0 mm | 29 mm |  | 
